Results on 3 compounds are retold here after US10040748B2, “4-hydroxybutyric acid analogs” (Concert Pharmaceuticals, Inc., priority 2011, dated 2018).

One may read the Cmax as the peak of the concentration-time curve. One may read the Tmax as the time at which the peak concentration occurs.

The nature of data set [1]: In vivo pharmacokinetic studies in rats (IV and PO dosing, plasma). The note with it: rat; for AUC0-∞ / CL / Vz / Cmax / Tmax: mean of N=4; for % F: 200 mg/kg PO vs IV, printed in AUC0-∞ column. The protocol: The pharmacokinetics of exemplary compounds was determined by comparison with 4-hydroxybutyric acid by dosing the compounds in rats according to the following study design and sampling procedure.

For data set [2] the following is noted: humans; cited from earlier work.
[3] abbreviates: 200 mg/kg PO, mean of N=4, Cmin at 4 hr.
Where [4] appears, read: 200 mg/kg IV, mean of N=4, Cmin at 2 hr.
The mark [5] stands for this setting: 200 mg/kg IV, mean of N=4, calculated up to 2 hr.
[6] abbreviates: 200 mg/kg PO, mean of N=4, calculated up to 4 hr.

Molecules are shown by their SMILES. Counter-ions that a name gives are not always drawn.

`O=C(O)CCCO` [4-hydroxybutyric acid, sodium salt, sodium salt of 4-hydroxybutyric acid, reference compound] came in with a concentration at 2 hr in data set [1] (plasma, 200 mg/kg IV, mean of N=4, Cmin at 2 hr) of 8000 ng/mL. In addition, the Cmin in data set [1] (setting [3]) was 2000 ng/mL. Also, in data set [2], the half life was 30 to 60 min.

`[2H]C([2H])(O)CC([2H])([2H])C(=O)[O-].[Na+]` [IV-b, sodium salt, Sodium 2,2,4,4-d4-4-hydroxybutanoate]: in data set [1] (200 mg/kg IV), the “AUC0-∞” value came out at 651 µg·h/mL, the CL amounted to 5 mL/min/kg and the Vz worked out at 0.3 L/kg. The Cmin in data set [1] (setting [4]) turned out to be 76000 ng/mL. Also, in data set [1] (setting [5]), the t1/2 was 37.8 min. For the same compound, in data set [1], the “% F” value came out at 40%. Besides, in data set [1] (200 mg/kg PO), the “AUC0-∞” value stood at 260 µg·h/mL, the Cmax came out at 151000 ng/mL and the time to peak (Tmax) was found to be 37.8 min. The compound also gave a Cmin in data set [1] (setting [3]) of 5000 ng/mL. Moreover, the t1/2 in data set [1] (setting [6]) was 56.4 min. Also, in data set [1] (200 mg/kg, comparison of AUC0-∞ and t1/2), the “pharmacokinetics relative to 4-hydroxybutyric acid, sodium salt” value is “considerably increased”.

Turning to `[2H]C([2H])(CCO)C(=O)[O-].[Na+]` [Sodium 2,2-d2-4-Hydroxybutanoate], in data set [1] (200 mg/kg IV), the “AUC0-∞” value was found to be 476 µg·h/mL, the CL was found to be 7 mL/min/kg and the Vz was determined as 0.2 L/kg. This compound gave a Cmin in data set [1] (setting [4]) of 19000 ng/mL. For the same compound, in data set [1] (setting [5]), the t1/2 was 19.8 min. In data set [1], the “% F” value is given as 41%. In data set [1] (200 mg/kg PO), the “AUC0-∞” value came out at 193 µg·h/mL, the Cmax came out at 153000 ng/mL and the Tmax worked out at 37.8 min. In data set [1] (setting [3]), this compound showed a Cmin of 1000 ng/mL. The t1/2 in data set [1] (setting [6]) was 35.4 min. For the same compound, the “AUC0-∞ fold change (printed in brackets under the PO AUC)” value in data set [1] (200 mg/kg PO, reference not given, apparently vs 4-hydroxybutyric acid, sodium salt) was “(+1.1X)”.
